Source: paper PMC6272869, “Simultaneous Determination of Multiple Components in Guanjiekang in Rat Plasma via the UPLC–MS/MS Method and Its Application in Pharmacokinetic Study” (Molecules, 2016)
Like-named read-outs stand apart in the source and are kept apart here.

Assays:
[1] = Pharmacokinetic study in rats after single oral administration of GJK (UPLC-MS/MS of plasma); type: in vivo, Sprague–Dawley rats; settings: single oral GJK 24 g/kg; for AUC(0-t) / Tmax / AUC(0-inf) / half-life / Cmax / MRT last: Sprague-Dawley; for AUC(0-t) / AUC(0-inf) / half-life / Cmax / MRT last / Tmax (time to reach peak concentration): rat plasma; for AUC(0-t): n = 6, zero to last sampling time; for AUC(0-t) / AUC(0-inf): mean ± S.D.; for Tmax: rat, po, 24 g/kg, read-out: Tmax (time to reach peak concentration) (converted); for Tmax / Tmax (time to reach peak concentration): n = 6, median (minimum, maximum); for AUC(0-inf): n = 6, AUC0–t extrapolated to infinity; for half-life / Cmax / MRT last: n = 6, mean ± S.D.; for half-life: non-compartmental, read-out: T1/2z (terminal elimination half-life); for Cmax: read-out: Cmax (maximum plasma concentration); for MRT last: read-out: MRT0–t (mean residence time) (converted)
Description: Chromatographic analyses were performed using an Agilent 1290 series UPLC system (Agilent Technologies, Santa Clara, CA, USA) equipped with a binary pump, an online degasser, an auto plate sampler, and a thermostatically controlled column compartment. The determination was carried out at 30 °C on a Waters Acquity UPLC C18 column (100 mm × 2.1 mm, […], Waters, Milford, MA, USA). The mobile phase consisted of 0.1% formic acid (A) and acetonitrile (B) using a gradient elution of 10%–34% B at 0–6 min, 34%–80% B at 6–10 min, 80% B at 10–12 min, 10% B at 12–15 min, and the re-equilibration time of gradient elution was 1 min. The sample injection volume was 5 µL, and the flow rate was 0.35 mL/min. The MS detection was performed using an Agilent 6460 Triple Quadrupole MS (Agilent Technologies) equipped with an electrospray ionization (ESI) source. […] Other parameters were as follows: drying gas (N2) flow rate, 11.0 L/min.
Plasma samples (50 µL) were thawed on ice and mixed with 200 µL of IS (20.0 ng/mL) via vortexing for 1 min. Then, the mixture was centrifuged at 13,500 rpm for 15 min to separate the precipitated protein at 4 °C. The supernatant was transferred into a clean Eppendorf tube and evaporated to dryness under a stream of nitrogen. The residues were reconstituted with 50 µL of water–methanol (50:50, v/v), vortexed and centrifuged at 13,500 rpm for 15 min. Then, the supernatants were injected into the UPLC–MS/MS for analysis.
Sprague–Dawley rats (200–250 g) were obtained from the Center of the Chinese University of Hong Kong and were kept in an environmentally controlled room (temperature: 25 ± 2 °C, humidity: 50% ± 5%, 12 h dark-light cycle) for at least 7 days before the experiments. Prior to the experiments, the animals were fasted for 24 h with water ad libitum. All protocols of animal experiments were approved in accordance with the regulations of the Experimental Animal Administration issued by the Macau University of Science and Technology.
The blood samples (100 µL) were individually collected from the caudal vein into heparinized tubes before administration, and 5, 10, 15, 30, 45, 60, 90, 120, 240, 360, 480, 720 and 1440 min after administration, and then immediately centrifuged at 4500 rpm for 15 min. […] The main PK parameters, including the maximum plasma concentration (Cmax), time to reach Cmax (Tmax), half-life time (T1/2), area under the curve (AUC 0–t and AUC 0–∞) and mean residence time (MRT), were calculated via the non-compartment model using the pharmacokinetic software, PK Solutions 2.0 (Summit Co., Montrose, CO, USA).

[2] = system: ages-induced mesangial cell damage; parameters: method as in PMID 23881455; settings: in vitro; read-out: IC50 of antioxidative and anti-inflammatory activities; cited from earlier work
[3] = system: phosphorylation of ERK, JNK, IKK stimulated by TNF-α; parameters: method as in PMID 23978582; settings: cited from earlier work
[4] = Stability of the analytes in rat plasma under different storage conditions (QC samples); type: in vitro ADME; settings: n = 3; for Remaining (%) / remaining at 4 h / remaining at 360 h: rat plasma; for Remaining (%): freeze–thaw cycles (three); for remaining at 24 h / remaining at 4 h / remaining at 360 h: rat; for remaining at 24 h: extracted plasma QC samples in auto-sampler, 4 °C for 24 h; for remaining at 4 h: 25 °C for 4 h; for remaining at 360 h: at −70 °C for 15 days
Description: The stability of the seven compounds in rat plasma was assessed by analyzing the QC samples at three concentrations under different sample storage conditions and processing procedures. Short-term stability was assessed by analyzing the QC samples that were kept at room temperature for 4 h, which exceeded the routine sample preparation time. […] Freeze-thaw stability was investigated after three freeze (−40 °C) and thaw (room temperature) cycles. Post-preparation stability was assessed by analyzing the extracted QC samples that were kept in the auto-sampler at 4 °C for […]. All stability testing QC samples were evaluated using the calibration curve of the freshly prepared samples.

[5] = system: NLRP3-dependent interleukin (IL)-1β production; parameters: method as in PMID 25210146; settings: cited from earlier work
[6] = system: NLRP3-activated ASC oligomerization; parameters: method as in PMID 25210146; settings: cited from earlier work
[7] = system: toll-like receptor 4 (TLR4)/MD2 complex; parameters: method as in PMID 22422925; settings: cited from earlier work
[8] = plasma, medium QC concentration

SMILES | AUC(0-t) ([1]; in vivo) | Tmax ([1]; plasma) | Tmax (time to reach peak concentration) [1] | Remaining (%) ([4]; high QC concentration) | Remaining (%) ([4]; low QC concentration) | Remaining (%) ([4]; medium QC concentration) | remaining at 24 h ([4]; plasma, high QC concentration) | remaining at 24 h ([4]; plasma, low QC concentration) | remaining at 24 h [4, 8] | remaining at 4 h ([4]; plasma, high QC concentration) | remaining at 4 h ([4]; plasma, low QC concentration) | remaining at 4 h [4, 8] | remaining at 360 h ([4]; plasma, high QC concentration) | remaining at 360 h ([4]; plasma, low QC concentration) | remaining at 360 h [4, 8] | AUC(0-inf) ([1]; in vivo) | half-life ([1]; in vivo) | Cmax ([1]; in vivo) | MRT last ([1]; in vivo) | Tmax ([1]; in vivo) | also measured
COc1ccc(-c2coc3cc(O)ccc3c2=O)cc1 [Formononetin, formononetin] | 15.2 ng·h/mL | < 0.767 h | 45 (30, 45) min |  |  |  |  |  |  |  |  |  |  |  |  |  |  |  |  |  | AUC(0-inf) [1]: 18.7 ng·h/mL; half-life [1]: 15.8 ± 1.62 h; Cmax [1]: 6.79 ± 2.18 ng/mL; MRT last [1]: 12.9 h
C[C@@]12C[C@@]3(O)O[C@@H](O1)[C@]1(COC(=O)c4ccccc4)[C@H]3C[C@@]12O[C@@H]1O[C@H](CO)[C@@H](O)[C@H](O)[C@H]1O [Paeoniflorin, paeoniflorin] | 1220 ng·h/mL |  |  | 105.0% | 107.8% | 106.4% | 103% | 98.3% | 105% | 96.4% | 102% | 102% | 104% | 98.6% | 104% | 1230 ng·h/mL | 3.5 ± 0.633 h | 905 ± 226 ng/mL | 3.32 h | < 0.767 h | IC50 [2]: 420 µM; Concentration that inhibits phosphorylation of ERK, JNK, IKK [3]: 25 ng/mL
COc1ccc(-c2coc3cc(O[C@@H]4O[C@H](CO)[C@@H](O)[C@H](O)[C@H]4O)ccc3c2=O)cc1O [Calycosin-7-glucoside, calycosin-7-glucoside] |  | < 0.767 h | 45 (45, 60) min | 107.4% | 108.1% | 107.3% |  |  |  | 103% | 106% | 96% | 102% | 108% | 94.3% |  |  |  |  |  | remaining at 24 h ([4]; high QC concentration): 103%; remaining at 24 h ([4]; low QC concentration): 104%; remaining at 24 h ([4]; medium QC concentration): 104%; AUC(0-inf) [1]: 79.3 ng·h/mL; half-life [1]: 4.43 ± 0.733 h; Cmax [1]: 52.2 ± 14.8 ng/mL; MRT last [1]: 2.17 h; AUC(0-t) [1]: 77.4 ng·h/mL
COCC12CCC(OC)C34C5CC6(O)C(OC)C(O)C(O)(C5C6OC(=O)c5ccccc5)C(C(OC)C13)C4N(C)C2 (stereo not shown) [Benzoylhypaconine, benzoylhypaconine] | 72.1 ng·h/mL |  | 30 (30, 45) min | 106.9% | 109.6% | 92.7% | 104% | 107% | 104% | 105% | 108% | 108% | 105% | 108% | 104% | 76.7 ng·h/mL | 6.37 ± 1.08 h | 35.6 ± 10.2 ng/mL | 6.25 h | < 0.767 h | 
O=C(/C=C/c1ccc(O)cc1)c1ccc(O)cc1O [Isoliquiritigenin, isoliquiritigenin] | 2650 ng·h/mL |  |  | 105.2% | 106.3% | 107.0% | 102% | 94.6% | 102% | 103% | 102% | 103% | 102% | 103% | 96.2% | 2750 ng·h/mL | 4.88 ± 0.8 h | 337 ± 103 ng/mL | 7.75 h | 3 h | Concentration that inhibits NLRP3-dependent IL-1β production ([5]; at both the priming step and the activation step): 1 µM; Concentration that inhibits NLRP3-dependent IL-1β production, converted to mass concentration ([5]; printed as equal to 1 µM): 256 ng/mL; Effect on NLRP3-activated ASC oligomerization [6]: inhibit NACHT, LRR and PYD domains-containing protein 3 (NLRP3)-activated apoptosis-associated speck-like protein (ASC) oligomerization; Effect on LPS-induced TLR4/MD2 complex signaling and NF-κB activation [7]: block lipopolysaccharides (LPS)-induced toll-like receptor 4 (TLR4)/MD2 complex signaling and nuclear factor NF-κB activation
COc1cc2c(cc1OC)[C@@H]1Cc3ccc(OC)c(OC)c3CN1CC2 [Tetrahydropalmatine, tetrahydropalmatine] | 170 ng·h/mL |  | 180 (180, 180) min | 108.1% | 89.9% | 107.4% | 101% | 105% | 98.4% | 102% | 103% | 101% | 103% | 104% | 103% | 184 ng·h/mL | 5.17 ± 0.9 h | 42 ± 13.4 ng/mL | 8.2 h | 3.15 h | 
